Read-outs that look alike come from different tables or passages of the source. Some results are limits rather than exact numbers.

For assay [1], the system named is human whole blood TNFα release. The experiment in a line: LPS-stimulation of human whole blood, TNF-α by ELISA. Type of assay: cell-based. Particulars: IC50 range, LPS 100 ng/ml, 6 hrs, read-out: Inhibitor activity versus human whole blood TNFα release. The procedure:
Whole blood was taken by venous puncture using heparinised vacutainers (Becton Dickinson) and diluted in an equal volume of RPMI 1640 tissue culture media (Sigma). 100 μl was plated in V-bottomed 96 well tissue culture treated plates. 2 hrs after the addition of the inhibitor in 100 μl of RPMI 1640 media, the blood was stimulated with LPS (E. coli strain 005:B5, Sigma) at a final concentration of 100 ng/ml and incubated at 37° C. in 5% CO2 for 6 hrs. TNF-α levels were measured from cell-free supernatants by sandwich ELISA (R&D Systems #QTA00B)

The subject of a further assay is THP-1 TNFα release. The experiment in a line: LPS-stimulation of THP-1 cells, TNF-α by ELISA. Type of assay: cell-based. The conditions noted are these: IC50 range, LPS 1 μg/ml, 6 hrs, read-out: Inhibitor activity versus THP-1 TNFα release. The protocol: THP-1 cells were plated in 100 μl at a density of 4×10^4 cells/well in V-bottomed 96 well tissue culture treated plates and incubated at 37° C. in 5% CO2 for 16 hrs. 2 hrs after the addition of the inhibitor in […], of tissue culture media, the cells were stimulated with LPS (E. coli strain 005:B5, Sigma) at a final concentration of 1 μg/ml and incubated at 37° C. in 5% CO2 for 6 hrs. TNF-α levels were measured from cell-free supernatants by sandwich ELISA (R&D Systems #QTA00B).

Another assay deals with T1, p38 MAP Kinase a (Homo sapiens, UniProt Q16539).
T1 construct: purchased Upstate (Dundee UK)
The experiment in a line: p38 MAP Kinase activity, radiometric filter-binding assay (Upstate). Type of assay: biochemical. The conditions noted are these: IC50 range; ATP at or close to Km; read-out: Inhibitor activity versus p38 MAPKa. The method in brief: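 Human p38 MAP kinase α (5-10 mU) with 0.33 mg/mL myelin basic protein, 25 mM Tris pH 7.5, 0.002 mM EGTA, 10 mM Mg acetate and [γ-33P]ATP at or near Km; 40 min at RT. Phosphoric acid stop, P30 filter binding and scintillation counting; IC50 from 9-step ⅓-log dilutions from 10 μM top concentration, duplicates.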

T1 sequence (Q16539 whole entry): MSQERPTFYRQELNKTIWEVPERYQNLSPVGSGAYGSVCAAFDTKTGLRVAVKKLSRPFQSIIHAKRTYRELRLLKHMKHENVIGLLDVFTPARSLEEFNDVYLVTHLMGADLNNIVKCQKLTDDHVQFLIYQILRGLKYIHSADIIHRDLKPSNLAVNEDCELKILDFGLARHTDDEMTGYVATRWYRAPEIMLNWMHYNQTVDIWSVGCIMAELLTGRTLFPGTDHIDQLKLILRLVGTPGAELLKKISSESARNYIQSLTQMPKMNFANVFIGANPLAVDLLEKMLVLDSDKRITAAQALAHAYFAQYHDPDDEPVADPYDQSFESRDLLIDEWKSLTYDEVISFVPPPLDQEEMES

Regarding `CC(C)C[C@H](NCc1ccc(-n2c(N)c(C(=O)c3ccc(F)cc3)ccc2=O)cc1)C(=O)OC1CCCC1` [Example 3, Cyclopentyl(S)-2-{4-[6-Amino-5-(4-fluorobenzoyl)-2-oxo-2H-pyridin-1-yl]benzylamino}-4-methylpentanoate], the IC50 in assay [1] is over 1000 nM; with THP-1 TNFα release (Homo sapiens, THP-1) it was over 1000 nM; on p38 MAP Kinase a, 100 to 1000 nM.

For the molecule `CC(C)C[C@H](NCc1ccc(-n2c(N)c(C(=O)c3ccc(F)cc3F)ccc2=O)cc1)C(=O)OC1CCCC1` [Example 9, Cyclopentyl(S)-2-{4-[6-Amino-5-(2,4-difluorobenzoyl)-2-oxo-2H-pyridin-1-yl]benzylamino}-4-methylpentanoate], the IC50 was over 1000 nM in assay [1]; 100 to 1000 nM in the assay on THP-1 TNFα release (Homo sapiens, THP-1); under 100 nM on p38 MAP Kinase a.

Take `CC(C)C[C@H](NCc1cc(F)c(-n2c(N)c(C(=O)c3ccc(F)cc3F)ccc2=O)c(F)c1)C(=O)OC1CCCC1` [Example 11]: the IC50 in assay [1] was over 1000 nM; in the assay with THP-1 TNFα release (Homo sapiens, THP-1), 100 to 1000 nM; at p38 MAP Kinase a it was under 100 nM.

Take `CC(C)C[C@H](NCCCOc1cc(F)c(-n2c(N)c(C(=O)c3ccc(F)cc3)ccc2=O)c(F)c1)C(=O)OC1CCCC1` [Example 15]: the IC50 in assay [1] is over 1000 nM; in the assay on THP-1 TNFα release (Homo sapiens, THP-1), under 100 nM; at p38 MAP Kinase a, under 100 nM.

As for `Cc1cc(C(=O)c2ccc(=O)n(-c3c(F)cc(OCCCN[C@@H](CC(C)C)C(=O)OC4CCCC4)cc3F)c2N)ccc1F` [Example 19, Cyclopentyl(S)-2-(3-{4-[6-Amino-5-(4-fluoro-3-methylbenzoyl)-2-oxo-2H-pyridin-1-yl]-3,5-difluorophenoxy}propylamino)-4-methylpentanoate], the IC50 was over 1000 nM in assay [1]; under 100 nM with THP-1 TNFα release (Homo sapiens, THP-1); under 100 nM on p38 MAP Kinase a.

With `Nc1c(C(=O)c2ccc(F)cc2F)ccc(=O)n1-c1c(F)cc(OCCCN[C@H](C(=O)OC2CCCC2)c2ccccc2)cc1F` [Example 20, Cyclopentyl(S)-(3-{4-[6-Amino-5-(2,4-difluorobenzoyl)-2-oxo-2H-pyridin-1-yl]-3,5-difluorophenoxy}propylamino)phenyl acetate], the IC50 in assay [1] was 100 to 1000 nM; with THP-1 TNFα release (Homo sapiens, THP-1), under 100 nM; at p38 MAP Kinase a, under 100 nM.

Turning to `Nc1c(C(=O)c2ccc(F)cc2F)ccc(=O)n1-c1c(F)cc(OCCCN[C@@H](Cc2ccccc2)C(=O)OC2CCCC2)cc1F` [Example 21, Cyclopentyl(S)-2-(3-{4-[6-Amino-5-(2,4-difluorobenzoyl)-2-oxo-2H-pyridin-1-yl]-3,5-difluorophenoxy}-propylamino)-3-phenyl propionate], the IC50 was over 1000 nM in assay [1]; under 100 nM in the assay on THP-1 TNFα release (Homo sapiens, THP-1); under 100 nM at p38 MAP Kinase a.

As for `CC(C)C[C@H](NCCCOc1cc(F)c(-n2c(N)c(C(=O)c3ccc(F)cc3F)ccc2=O)c(F)c1)C(=O)OC1CCCC1` [Example 22, Cyclopentyl(S)-2-(3-{4-[6-Amino-5-(2,4-difluorobenzoyl)-2-oxo-2H-pyridin-1-yl]-3,5-difluorophenoxy}propylamino)-4-methyl pentanoate], the IC50 was 100 to 1000 nM in assay [1]; under 100 nM in the assay on THP-1 TNFα release (Homo sapiens, THP-1); under 100 nM at p38 MAP Kinase a.

On to `CC(C)C[C@H](NCCCOc1ccc(-n2c(N)c(C(=O)c3ccc(F)cc3)ccc2=O)cc1)C(=O)OC1CCCC1` [Example 25, Cyclopentyl(S)-2-(3-{4-[6-Amino-5-(4-fluorobenzoyl)-2-oxo-2H-pyridin-1-yl]phenoxy}propylamino)-4-methylpentanoate], for which the IC50 in assay [1] is over 1000 nM; in the assay on THP-1 TNFα release (Homo sapiens, THP-1), 100 to 1000 nM; at p38 MAP Kinase a it was under 100 nM.

Take `Cc1cc(C(=O)c2ccc(=O)n(-c3ccc(OCCCN[C@@H](CC(C)C)C(=O)OC4CCCC4)cc3)c2N)ccc1F` [Example 27, Cyclopentyl(S)-2-(3-{4-[6-Amino-5-(4-fluoro-3-methylbenzoyl)-2-oxo-2H-pyridin-1-yl]phenoxy}propylamino)-4-methylpentanoate]: the IC50 in assay [1] was over 1000 nM; in the assay on THP-1 TNFα release (Homo sapiens, THP-1) it was 100 to 1000 nM; on p38 MAP Kinase a it was 100 to 1000 nM.

`CC(C)(C)OC(=O)[C@@H](NCCCOc1cc(F)c(-n2c(N)c(C(=O)c3ccc(F)cc3F)ccc2=O)c(F)c1)c1ccccc1` [Example 36, tert-Butyl(S)-(3-{4-[6-Amino-5-(2,4-difluorobenzoyl)-2-oxo-2H-pyridin-1-yl]-3,5-difluorophenoxy}propylamino)phenyl acetate]: the IC50 in assay [1] was over 1000 nM; with THP-1 TNFα release (Homo sapiens, THP-1), under 100 nM; at p38 MAP Kinase a, under 100 nM.

`CC(C)C[C@H](NCCCOc1cc(F)c(-n2c(N)c(C(=O)c3ccc(F)cc3F)ccc2=O)c(F)c1)C(=O)OC(C)(C)C` [Example 38, tert-Butyl(S)-2-(3-{4-[6-Amino-5-(2,4-difluorobenzoyl)-2-oxo-2H-pyridin-1-yl]-3,5-difluorophenoxy}propylamino)-4-methyl pentanoate]: the IC50 in assay [1] was over 1000 nM; in the assay with THP-1 TNFα release (Homo sapiens, THP-1), under 100 nM; on p38 MAP Kinase a it was under 100 nM.

For the molecule `Nc1c(C(=O)c2ccc(F)cc2F)ccc(=O)n1-c1c(F)cc(OCCCN[C@@H](C(=O)OC2Cc3ccccc3C2)c2ccccc2)cc1F` [Example 41, 2,3-dihydro-1H-inden-2-yl (2R)-[(3-{4-[6-amino-5-(2,4-difluorobenzoyl)-2-oxopyridin-1(2H)-yl]-3,5-difluorophenoxy}propyl)amino](phenyl)acetate], the IC50 in assay [1] is over 1000 nM; in the assay with THP-1 TNFα release (Homo sapiens, THP-1), under 100 nM; at p38 MAP Kinase a, 100 to 1000 nM.

Regarding `Nc1c(C(=O)c2ccc(F)cc2F)ccc(=O)n1-c1c(F)cc(OCCCN[C@@H](C(=O)OC2CCCC2)c2ccccc2)cc1F` [Example 42, Cyclopentyl (2R)-[(3-{4-[6-amino-5-(2,4-difluorobenzoyl)-2-oxopyridin-1 (2H)-yl]-3,5-difluorophenoxy}propyl)amino](phenyl)acetate], the IC50 was 100 to 1000 nM in assay [1]; under 100 nM with THP-1 TNFα release (Homo sapiens, THP-1); under 100 nM on p38 MAP Kinase a.

On to `CC(C)C[C@H](NCCCOc1cc(F)c(-n2c(N)c(C(=O)c3ccc(F)cc3F)ccc2=O)c(F)c1)C(=O)OCCN(C)C` [Example 46, 2-(Dimethylamino)ethyl N-(3-{4-[6-amino-5-(2,4-difluorobenzoyl)-2-oxopyridin-1(2H)-yl]-3,5-difluorophenoxy}propyl)-L-leucinate], for which the IC50 in assay [1] was 100 to 1000 nM; with THP-1 TNFα release (Homo sapiens, THP-1), under 100 nM; on p38 MAP Kinase a, 100 to 1000 nM.

With `CC(C)C[C@H](NCCCOc1cc(F)c(-n2c(N)c(C(=O)c3ccc(F)cc3F)ccc2=O)c(F)c1)C(=O)OCCN1CCOCC1` [Example 47, 2-Morpholin-4-ylethyl N-(3-{4-[6-amino-5-(2,4-difluorobenzoyl)-2-oxopyridin-1(2H)-yl]-3,5-difluorophenoxy}propyl)-L-leucinate], the IC50 in assay [1] is 100 to 1000 nM; in the assay on THP-1 TNFα release (Homo sapiens, THP-1), under 100 nM; at p38 MAP Kinase a it was under 100 nM.

Regarding `CC(C)C[C@H](NCCc1ccc(-n2c(N)c(C(=O)c3ccc(Cl)cc3)ccc2=O)cc1)C(=O)OC1CCCC1` [Example 65, Cyclopentyl N-[2-(4-{6-amino-5-[(4-chlorophenyl)carbonyl]-2-oxopyridin-1(2H)-yl}phenyl)ethyl]-L-leucinate], the IC50 in the assay on THP-1 TNFα release (Homo sapiens, THP-1) was under 100 nM; at p38 MAP Kinase a, 100 to 1000 nM.

On to `CC(C)C[C@H](NCCCOc1ccc(-n2c(N)c(C(=O)c3ccc(F)cc3)ccc2=O)c(F)c1)C(=O)OC1CCCC1` [Example 66, Cyclopentyl N-[3-(4-{6-amino-5-[(4-fluorophenyl)carbonyl]-2-oxopyridin-1(2H)-yl}-3-fluorophenoxy)propyl]-L-leucinate], for which the IC50 with THP-1 TNFα release (Homo sapiens, THP-1) lay within 100 to 1000 nM; on p38 MAP Kinase a it was 100 to 1000 nM.

Regarding `O=C(c1ccc(F)cc1)c1ccc(=O)[nH]c1Nc1c(F)cc(CN[C@@H](Cc2ccccc2)C(=O)OC2CCCC2)cc1F` [Example 71, Cyclopentyl(S)-2-[3,5-Difluoro-4-[3-(4-fluorobenzoyl)-6-oxo-1,6-dihydropyridin-2-ylamino]benzylamino]-3-phenylpropionate], the IC50 with THP-1 TNFα release (Homo sapiens, THP-1) is over 1000 nM; on p38 MAP Kinase a it was under 100 nM.

As to “Cyclopentyl(S)-2-{4-[6-Amino-5-(2,4-fluorobenzoyl)-2-oxo-2H-pyridin-1-yl]-3,5-difluorobenzylamino}-3-phenylpropionate [Example 10]”, the IC50 is 100 to 1000 nM in the assay with THP-1 TNFα release and under 100 nM on p38 MAP Kinase a.

With “tert-Butyl(S)-(3-{4-[6-Amino-5-(4-difluoro benzoyl)-2-oxo-2H-pyridin-1-yl]-3,5-difluorophenoxy}propylamino)phenyl acetate [Example 45]”, the IC50 with THP-1 TNFα release and at p38 MAP Kinase a was under 100 nM in each case.

For the origin of these results see patent US8044211B2 (Chroma Therapeutics Ltd., priority 2006, dated 2011).
